From ChEMBL document CHEMBL1136586, “Structure-activity relationship of linear peptide Bu-His6-DPhe7-Arg8-Trp9-Gly10-NH2 at the human melanocortin-1 and -4 receptors: DPhe7 and Trp9 substitution” (Bioorg Med Chem Lett, 2003)
pEC50, pIC50: −log10 of the molar value. Square brackets hold non-standard residues; d marks the D form. Peptide text beside a SMILES is read from it. * marks the point of attachment. Phe(3-CF3) = N[C@@H](Cc1cccc(C(F)(F)F)c1)C(=O)O; Phe(4-Br) = N[C@@H](Cc1ccc(Br)cc1)C(=O)O; Phe(4-Cl) = N[C@@H](Cc1ccc(Cl)cc1)C(=O)O; Phe(4-Me) = Cc1ccc(C[C@H](N)C(=O)O)cc1; Butyryl = CCCC(=O)*

Assays:
Melanocortin receptor 4 [1] = target: T1, Melanocortin receptor 4 (Homo sapiens, UniProt P32245); assay: Inhibitory concentration of compound was determined against hMC4R through displacement of NDP-MSH radioligand using HEK293 cells; assay type: cell-based
Melanocortin receptor 4 [2] = target: T1, Melanocortin receptor 4; assay: (§1) Effective concentration against hMC4R using HEK293 cells was determined by measuring cAMP accumulation; assay type: functional, cell-based
[3] = target: T2, Melanocyte-stimulating hormone receptor (Homo sapiens, UniProt Q01726); assay: Inhibitory concentration of compound was determined against hMC1R through displacement of NDP-MSH radioligand using HEK293 cells; assay type: cell-based
[4] = target: T2, Melanocyte-stimulating hormone receptor; assay: Effective concentration against hMC1R using HEK293 cells was determined by measuring the cAMP accumulation; assay type: functional, cell-based
Melanocortin receptor 4 [5] = target: T1, Melanocortin receptor 4; assay: as §1; assay type: functional, cell-based; remark: listed apart in the source
Melanocortin receptor 4 [6] = target: T1, Melanocortin receptor 4; assay: (§2) Effective concentration against hMC4R using HEK293 cells was determined by measuring cAMP accumulation at 50 uM; assay type: functional, cell-based
Melanocortin receptor 4 [7] = target: T1, Melanocortin receptor 4; assay: as §2; assay type: functional, cell-based; remark: listed apart in the source

T1 sequence (P32245 whole entry): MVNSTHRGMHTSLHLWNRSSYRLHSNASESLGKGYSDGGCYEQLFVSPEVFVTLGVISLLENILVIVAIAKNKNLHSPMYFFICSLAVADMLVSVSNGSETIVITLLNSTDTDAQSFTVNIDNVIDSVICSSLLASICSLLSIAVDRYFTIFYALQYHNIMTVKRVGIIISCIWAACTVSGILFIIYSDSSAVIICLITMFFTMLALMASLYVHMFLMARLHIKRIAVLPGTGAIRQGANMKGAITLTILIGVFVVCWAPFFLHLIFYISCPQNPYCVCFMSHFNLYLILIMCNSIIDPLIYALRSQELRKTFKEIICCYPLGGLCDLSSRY
T2 sequence (Q01726 whole entry): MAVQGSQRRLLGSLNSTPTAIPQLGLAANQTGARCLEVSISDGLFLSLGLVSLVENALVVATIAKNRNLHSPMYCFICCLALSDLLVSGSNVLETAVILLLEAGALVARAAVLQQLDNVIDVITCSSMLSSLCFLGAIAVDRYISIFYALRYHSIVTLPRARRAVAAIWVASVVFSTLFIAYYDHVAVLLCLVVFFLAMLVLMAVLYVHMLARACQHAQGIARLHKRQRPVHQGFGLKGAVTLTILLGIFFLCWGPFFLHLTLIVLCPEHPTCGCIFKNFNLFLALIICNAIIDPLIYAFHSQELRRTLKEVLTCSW

pIC50 (Melanocortin receptor 4 [1])	pEC50 (Melanocortin receptor 4 [2])	pIC50 [3]	pEC50 [4]	ED50 (Melanocortin receptor 4 [5]) [nM]	pEC50 (Melanocortin receptor 4 [6])	inhibition (Melanocortin receptor 4 [7]) [%]	Compound
6.52	7.35	5.02	6.21	–	–	–	CCCC(=O)N[C@@H](Cc1cnc[nH]1)C(=O)N[C@@H](Cc1cccc(C(F)(F)F)c1)C(=O)N[C@@H](CCCNC(=N)N)C(=O)N[C@@H](Cc1c[nH]c2ccccc12)C(=O)NCC(N)=O (Butyryl-H[Phe(3-CF3)]RWG-NH2)
–	–	–	9.00	194	–	–	CCCC(=O)N[C@@H](Cc1c[nH]cn1)C(=O)NC(Cc1ccccc1)C(=O)N[C@@H](CCCN=C(N)N)C(=O)N[C@@H](Cc1ccc(Cl)c(Cl)c1)C(=O)NCC(N)=O (single isomer, unassigned)
–	7.11	–	7.26	–	–	–	CCCC(=O)N[C@@H](Cc1cnc[nH]1)C(=O)N[C@@H](Cc1ccc(C)cc1)C(=O)N[C@@H](CCCNC(=N)N)C(=O)N[C@@H](Cc1c[nH]c2ccccc12)C(=O)NCC(N)=O (Butyryl-H[Phe(4-Me)]RWG-NH2)
7.00	7.80	7.80	10.00	–	–	–	CCCC(=O)N[C@@H](Cc1c[nH]cn1)C(=O)NC(Cc1ccc(OCC)cc1)C(=O)N[C@@H](CCCN=C(N)N)C(=O)N[C@@H](Cc1c[nH]c2ccccc12)C(=O)NCC(N)=O (single isomer, unassigned)
6.92	7.22	7.15	9.40	–	–	–	CCCC(=O)N[C@@H](Cc1c[nH]cn1)C(=O)N[C@@H](Cc1ccc(OC)cc1)C(=O)N[C@@H](CCCN=C(N)N)C(=O)N[C@@H](Cc1c[nH]c2ccccc12)C(=O)NCC(N)=O (Butyryl-HY(Me)RWG-NH2)
7.10	7.70	6.52	7.70	–	–	–	CCCC(=O)N[C@@H](Cc1cnc[nH]1)C(=O)N[C@@H](Cc1ccc(Cl)cc1)C(=O)N[C@@H](CCCNC(=N)N)C(=O)N[C@@H](Cc1c[nH]c2ccccc12)C(=O)NCC(N)=O (Butyryl-H[Phe(4-Cl)]RWG-NH2)
–	5.94	–	6.74	–	–	–	CCCC(=O)N[C@@H](Cc1cnc[nH]1)C(=O)N[C@@H](Cc1ccc(O)cc1)C(=O)N[C@@H](CCCNC(=N)N)C(=O)N[C@@H](Cc1c[nH]c2ccccc12)C(=O)NCC(N)=O (Butyryl-HYRWG-NH2)
–	–	–	6.96	–	6.96	–	CCCC(=O)N[C@@H](Cc1c[nH]cn1)C(=O)NC(Cc1ccccc1)C(=O)N[C@@H](CCCN=C(N)N)C(=O)NC(Cc1c[nH]c2ccccc12)C(=O)NCC(N)=O (single isomer, unassigned)
7.66	7.89	6.52	7.27	–	–	–	CCCC(=O)N[C@@H](Cc1c[nH]cn1)C(=O)N[C@@H](Cc1ccc(Br)cc1)C(=O)N[C@@H](CCCN=C(N)N)C(=O)N[C@@H](Cc1c[nH]c2ccccc12)C(=O)NCC(N)=O (Butyryl-H[Phe(4-Br)]RWG-NH2)
7.52	–	5.30	7.32	–	–	0	CCCC(=O)N[C@@H](Cc1c[nH]cn1)C(=O)N[C@H](Cc1ccc2ccccc2c1)C(=O)N[C@@H](CCCN=C(N)N)C(=O)N[C@@H](Cc1c[nH]c2ccccc12)C(=O)NCC(N)=O
6.46	7.19	5.40	7.52	–	–	–	CCCC(=O)N[C@@H](Cc1c[nH]cn1)C(=O)N[C@H](Cc1cccc2ccccc12)C(=O)N[C@@H](CCCN=C(N)N)C(=O)N[C@@H](Cc1c[nH]c2ccccc12)C(=O)NCC(N)=O
7.30	7.60	6.22	7.85	–	–	–	CCCC(=O)N[C@@H](Cc1c[nH]cn1)C(=O)NC(Cc1ccccc1)C(=O)N[C@@H](CCCN=C(N)N)C(=O)N[C@@H](Cc1ccc2ccccc2c1)C(=O)NCC(N)=O (single isomer, unassigned)
6.00	7.00	5.54	6.56	–	–	–	CCCC(=O)N[C@@H](Cc1cnc[nH]1)C(=O)N[C@H](Cc1ccccc1)C(=O)N[C@@H](CCCNC(=N)N)C(=O)N[C@@H](Cc1csc2ccccc12)C(=O)NCC(N)=O
6.82	7.70	6.24	8.00	–	–	–	CCCC(=O)N[C@@H](Cc1cnc[nH]1)C(=O)N[C@@H](Cc1ccccc1)C(=O)N[C@@H](CCCNC(=N)N)C(=O)N[C@@H](Cc1c[nH]c2ccccc12)C(=O)NCC(N)=O
6.22	6.85	5.92	6.82	–	–	–	CCCC(=O)N[C@@H](Cc1c[nH]cn1)C(=O)NC(Cc1ccccc1)C(=O)N[C@@H](CCCN=C(N)N)C(=O)N[C@@H](Cc1cccc2ccccc12)C(=O)NCC(N)=O (single isomer, unassigned)
–	–	–	8.40	–	8.10	–	CCCC(=O)N[C@@H](Cc1c[nH]cn1)C(=O)NC(Cc1cccs1)C(=O)N[C@@H](CCCN=C(N)N)C(=O)N[C@@H](Cc1c[nH]c2ccccc12)C(=O)NCC(N)=O (single isomer, unassigned)
8.40	–	6.60	8.00	–	–	0	CCCC(=O)N[C@@H](Cc1c[nH]cn1)C(=O)N[C@H](Cc1ccc(Cl)c(Cl)c1)C(=O)N[C@@H](CCCN=C(N)N)C(=O)N[C@@H](Cc1c[nH]c2ccccc12)C(=O)NCC(N)=O
